According to ChEMBL document CHEMBL6083269, “Design, synthesis, in vitro and in vivo trypanosomaticidal efficacy of novel 5-nitroindolylazines” (Eur J Med Chem, 2024):

Experiments:
[1] = test system: Trypanosoma brucei rhodesiense; assay: Trypanocidal activity against Trypanosoma brucei rhodesiense IL1501 incubated for 72 hrs by CellTiter-Glo reagent based […] analysis; assay type: functional, organism-based; conditions: IL1501, 72 h
[2] = test system: Trypanosoma congolense; assay: Trypanocidal activity against Trypanosoma congolense IL3000 incubated for 72 hrs by CellTiter-Glo reagent based […] analysis; assay type: functional, organism-based; conditions: IL3000, 72 h
[3] = test system: Trypanosoma evansi; assay: Trypanocidal activity against Trypanosoma evansi Tansui incubated for 72 hrs by CellTiter-Glo reagent based […] analysis; assay type: functional, organism-based
[4] = Cytotoxicity against MDBK cells incubated for 72 hrs by CCK8 assay; assay type: toxicity, cell-based, Bos taurus; conditions: cattle, MDBK cells
[5] = Selectivity index, ratio of CC50 for MDBK to IC50 for Trypanosoma congolense IL3000; assay type: toxicity, cell-based; conditions: cattle, MDBK cells; read-out: Ratio CC50/IC50
[6] = test system: Leishmania donovani; assay: Antileishmanial activity against Leishmania donovani 9515 (MHOM/IN/95/9151) promastigote incubated for 48 hrs by resazurin dye based plate reader assay; assay type: functional, organism-based
[7] = Cytotoxicity against human […]-differentiated THP-1 cells incubated for 72 hrs by resazurin dye based assay; assay type: toxicity, cell-based
[8] = test system: Trypanosoma brucei gambiense; assay: Trypanocidal activity against Trypanosoma brucei gambiense IL1922 incubated for 72 hrs by CellTiter-Glo reagent based […] analysis; assay type: functional, organism-based; conditions: IL1922, 72 h
[9] = test system: Trypanosoma equiperdum; assay: Trypanocidal activity against Trypanosoma equiperdum IVM-t1 incubated for 72 hrs by CellTiter-Glo reagent based […] analysis; assay type: functional, organism-based; conditions: IVM-t1, 72 h
[10] = test system: Trypanosoma brucei brucei; assay: Trypanocidal activity against Trypanosoma brucei brucei GUTat3.1 incubated for 72 hrs by CellTiter-Glo reagent based […] analysis; assay type: functional, organism-based; conditions: GUTat3.1, 72 h
[11] = test system: Leishmania donovani; assay: Leishmanicidal activity against Leishmania donovani 9515 (MHOM/IN/95/9151) amastigote infected in THP-1 cells incubated for 72 hrs by resazurin dye based plate reader assay; assay type: functional, organism-based; conditions: THP-1, 72 h
[12] = test system: Leishmania donovani; assay: Antileishmanial activity against Leishmania donovani 9515 (MHOM/IN/95/9151) amastigote infected in THP-1 cells assessed as inhibition of parasite growth incubated for 72 hrs by resazurin dye based plate reader assay; assay type: functional, organism-based; conditions: THP-1, 72 h
[13] = Cytotoxicity against green monkey Vero cells incubated for 48 hrs by resazurin dye based assay; assay type: toxicity, cell-based; conditions: African green monkey (Chlorocebus sabaeus)
[14] = Selectivity index, ratio of IC50 for human THP-1 cells to IC50 for static antileishmanial activity against Leishmania donovani 9515 (MHOM/IN/95/9151) amastigote; assay type: toxicity, cell-based; conditions: read-out: Ratio IC50
[15] = Selectivity index, ratio of IC50 for african green monkey Vero cells to IC50 for static antileishmanial activity against Leishmania donovani 9515 (MHOM/IN/95/9151) amastigote; assay type: toxicity, cell-based; conditions: read-out: Ratio IC50
[16] = Selectivity index, ratio of IC50 for human THP-1 cells to IC50 for leishmanicidal activity against Leishmania donovani 9515 (MHOM/IN/95/9151) amastigote; assay type: toxicity, cell-based; conditions: read-out: Ratio IC50
[17] = Selectivity index, ratio of IC50 for african green monkey Vero cells to IC50 for leishmanicidal activity against Leishmania donovani 9515 (MHOM/IN/95/9151) amastigote; assay type: toxicity, cell-based; conditions: read-out: Ratio IC50

SMILES	IC50 [1] [µM]	IC50 [2] [µM]	IC50 [3] [µM]	CC50 at 72 h [4] [µM]	selectivity ratio [5]	IC50 [6] [µM]	IC50 at 72 h [7] [µM]	IC50 [8] [µM]	IC50 [9] [µM]	IC50 [10] [µM]	IC50 [11] [µM]	IC50 [12] [µM]	IC50 at 48 h [13] [µM]	selectivity ratio [14]	selectivity ratio [15]	selectivity ratio [16]	selectivity ratio [17]
C#CCn1cc(/C=N\N=C\c2cnc[nH]2)c2cc([N+](=O)[O-])ccc21	> 78	14.8	> 78	> 312	> 21	> 10	42.5	> 78	> 78	> 78	> 10	> 10	83.2	–	–	–	–
CC1CS(=O)(=O)CCN1/N=C/c1ccc([N+](=O)[O-])o1 (stereo not given) [NIFURTIMOX]	–	–	–	–	–	–	–	4.58	–	–	–	–	–	–	–	–	–
C#CCn1cc(/C=N\N=C\c2ccncc2)c2cc([N+](=O)[O-])ccc21	> 75.5	> 75.5	> 75.5	267	–	> 10	66.4	> 75.5	> 75.5	> 75.5	> 10	> 10	> 100	–	–	–	–
C#CCn1cc(/C=N\N)c2cc([N+](=O)[O-])ccc21	> 103	> 3.2	> 103	341	–	> 10	61	> 103	> 103	> 103	> 10	> 10	96.8	–	–	–	–
N=C(N)c1ccc(/N=N/Nc2ccc(C(=N)N)cc2)cc1 [DIMINAZENE DIACETURATE]	–	0.109	–	–	–	–	–	–	0.011	–	–	–	–	–	–	–	–
C#CCn1cc(/C=N\N=C\c2cccn2C)c2cc([N+](=O)[O-])ccc21	> 74.8	> 74.8	> 74.8	> 299	–	> 10	–	> 74.8	> 74.8	> 74.8	> 10	> 10	–	–	–	–	–
N=C(N)c1ccc(OCCCCCOc2ccc(C(=N)N)cc2)cc1 [PENTAMIDINE]	–	0.33	0.001	–	–	–	–	0.014	0.001	–	–	–	–	–	–	–	–
C#CCn1ccc2cc([N+](=O)[O-])ccc21	> 125	> 125	> 125	> 500	–	> 10	> 100	> 125	> 125	> 125	> 10	> 10	> 100	–	–	–	–
C#CCn1cc(C=O)c2cc([N+](=O)[O-])ccc21	> 110	> 110	> 110	> 438	–	> 10	77	> 110	> 110	> 110	> 10	> 10	> 100	–	–	–	–
Cc1ccc(C(=O)Nc2ccc(S(=O)(=O)O)c3cc(S(=O)(=O)O)cc(S(=O)(=O)O)c23)cc1NC(=O)c1cccc(NC(=O)Nc2cccc(C(=O)Nc3cc(C(=O)Nc4ccc(S(=O)(=O)O)c5cc(S(=O)(=O)O)cc(S(=O)(=O)O)c45)ccc3C)c2)c1 [SURAMIN]	–	–	–	–	–	–	–	–	0.038	–	–	–	–	–	–	–	–
C#CCn1cc(/C=N\N=C/C)c2cc([N+](=O)[O-])ccc21	> 93.2	> 93.2	> 93.2	> 373	–	> 10	59.3	> 93.2	> 93.2	> 93.2	> 10	> 10	89	–	–	–	–
C#CCn1cc(/C=N\N=C\c2ccccn2)c2cc([N+](=O)[O-])ccc21	> 75.5	> 75.5	> 75.5	> 121	–	> 10	> 100	> 75.5	> 75.5	> 75.5	3.35	1.59	> 100	63	> 63	> 30	> 30
C#CCn1cc(/C=N\N=C/C2CC2)c2cc([N+](=O)[O-])ccc21	> 84.9	> 84.9	> 84.9	> 340	–	> 10	51.8	> 84.9	> 84.9	> 84.9	> 10	> 10	88.4	–	–	–	–
O=[N+]([O-])c1ccc2[nH]ccc2c1	–	–	–	–	–	> 10	> 100	–	–	–	> 10	> 10	> 100	–	–	–	–
C#CCn1cc(/C=N\N=C\c2cccnc2)c2cc([N+](=O)[O-])ccc21	> 75.5	> 75.5	> 75.5	111	–	> 10	> 100	> 75.5	> 75.5	> 75.5	1.46	1.32	> 100	76	> 76	> 68	> 68
NCCCC(N)(C(=O)O)C(F)F (stereo not given) [EFLORNITHINE]	46	16.1	57.2	–	–	–	–	36.7	–	38.6	–	–	–	–	–	–	–
